# Experimental data taken from patent EP0317544A1, “Method of modifying the micro environment of an enzyme by cross-linking the peptidic molecules, use thereof for making enzymatic reactors requiring the regeneration of the cofactor” (priority 1987, dated 1989).
# Legend:
# [1] = target: alcool déshydrogénase (ADH), préparation ADH-LYS (polylysine, forme soluble) (Saccharomyces cerevisiae, UniProt P00330); assay: Two-substrate ordered kinetics of alcohol dehydrogenase, soluble polylysine-grafted preparation; assay type: biochemical; settings: compared with the other soluble preparations
# alcool déshydrogénase (ADH), préparation ADH-LYS (polylysine, forme soluble), sequence (P00330 2-348): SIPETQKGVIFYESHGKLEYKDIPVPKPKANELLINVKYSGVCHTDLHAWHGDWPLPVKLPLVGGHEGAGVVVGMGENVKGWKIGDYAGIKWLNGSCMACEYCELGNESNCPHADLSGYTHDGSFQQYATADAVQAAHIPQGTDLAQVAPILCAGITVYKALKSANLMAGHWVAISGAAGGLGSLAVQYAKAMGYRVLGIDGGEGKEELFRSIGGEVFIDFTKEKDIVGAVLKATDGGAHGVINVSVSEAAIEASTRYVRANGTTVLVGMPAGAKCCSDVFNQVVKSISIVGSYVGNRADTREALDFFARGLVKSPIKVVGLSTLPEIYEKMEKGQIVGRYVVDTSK
# From the text: (§1) L'alcool déshydrogénase étant un enzyme suivant une réaction ordonnée à deux substrats, sa cinétique répond à l'équation : [formula] Ka et Kb sont les constantes de type Michaelis-Menten correspondant à la dissociation du complexe ternaire du NAD⁺ et de l'éthanol alors que Kia représente la constante de dissociation du complexe binaire ADH-NAD⁺ (Wratten et Cleland, 1963, Biochemistry 2, 935-941).
# (§2) Les valeurs des constantes pour les diverses préparations sont donnés au tableau 3. Nous ne pouvons pas ici interpréter chacune de ces valeurs et nous nous limiterons aux variations les plus importantes. En ce qui concerne le Kia, rappelons que plus le Kia est petit, plus l'affinité de l'enzyme pour la fixation de son premier substrat, le NAD⁺ est grande. Nous remarquons peu de variation pour les préparations solubles excepté pour la polylysine. […] Il faut aussi tenir compte de la charge positive de la lysine qui pourrait inhiber la diffusion du NAD⁺. Dans le cas de Ka et Kb, la fixation des peptides sur l'enzyme augmente les constantes, c'est-à-dire diminue l'affinité de fixation de ces substrats sur les complexes quaternaires de l'enzyme. Dans le cas des enzymes incorporés dans le gel, on constate aussi certains changements mais il faut en plus de l'effet du micro-environnement tenir compte des effets de diffusion. […]
# [2] = target: alcool déshydrogénase (ADH), préparation ADH-LYS-PAA (poly-lysine-résine, forme immobilisée) (Saccharomyces cerevisiae, UniProt P00330); assay: Two-substrate ordered kinetics of alcohol dehydrogenase, polylysine-grafted preparation copolymerised in polyacrylamide gel; assay type: biochemical; settings: enzyme incorporated in polyacrylamide gel; apparent value, diffusion effects
# alcool déshydrogénase (ADH), préparation ADH-LYS-PAA (poly-lysine-résine, forme immobilisée), sequence (P00330 2-348): as above
# From the text: as §1, §2
smiles,measurement,setting,value
NC(=O)c1ccc[n+]([C@@H]2O[C@H](COP(=O)([O-])OP(=O)(O)OC[C@H]3O[C@@H](n4cnc5c(N)ncnc54)[C@H](O)[C@@H]3O)[C@@H](O)[C@H]2O)c1 [NAD⁺],Kia (constante de dissociation du complexe binaire ADH-NAD⁺),[1],baisse d'affinité
same,Kia (constante de dissociation du complexe binaire ADH-NAD⁺),[2],très faible
